Reference: patent US5753617A, “Peptide inhibitors of cellular adhesion” (Centocor, Inc., priority 1995, dated 1998)
Where a SMILES comes first, the peptide text is derived from it. Bridges are numbered along the chain shown (N, C = ends). [ ]: non-standard residue; d: D form. dPen = CC(C)(S)[C@@H](N)C(=O)O; Dap = NC[C@H](N)C(=O)O

test system: not given; assay: not given; conditions: amide bond; BOP/HOBt/DIEA; NMP; 80.0 h; 9 steps

Structure (SMILES) | ring closure, yield of all isomers [%]
CC(C)[C@H](NC(=O)[C@H](Cc1c[nH]c2ccccc12)NC(=O)[C@@H](NC(=O)[C@H](Cc1c[nH]c2ccccc12)NC(=O)[C@@H]1CC(=O)NC[C@H](NC(=O)[C@H](CCCCN)NC(=O)[C@@H](N)CCCNC(=N)N)C(=O)NCC(=O)NCC(=O)N1)[C@@H](C)O)C(N)=O | 8.5

same assay, conditions: from CC(C)[C@H](NC(=O)[C@@H](Cc1c[nH]c2ccccc12)NC(=O)[C@H](NC(=O)[C@@H](Cc1c[nH]c2ccccc12)NC(=O)[C@@H](CS)NC(=O)[C@H](Cc1ccccc1)NC(=O)CNC(=O)[C@@H](CS)NC(=O)[C@@H](CCCCN)NC(=O)[C@H](N)CCCNC(=N)N)[C@H](C)O)C(N)=O; disulfide bond; DMSO; water; 0.161 mM

Structure (SMILES) | ring closure, yield of all isomers [%]
CC(C)[C@H](NC(=O)[C@@H](Cc1c[nH]c2ccccc12)NC(=O)[C@H](NC(=O)[C@@H](Cc1c[nH]c2ccccc12)NC(=O)[C@H]1CSSC[C@@H](NC(=O)[C@@H](CCCCN)NC(=O)[C@H](N)CCCNC(=N)N)C(=O)NCC(=O)N[C@@H](Cc2ccccc2)C(=O)N1)[C@H](C)O)C(N)=O | 9.4

biological target: T1, P-selectin (Homo sapiens, UniProt P16109); assay: Inhibition of human neutrophil adhesion to purified P-selectin immobilized on plastic wells; type: cell-based; conditions: human neutrophils, purified human P-selectin
T1 construct: P-selectin is isolated from human platelet lysates; from tissue; host or cells: human platelets (outdated platelet packs from a blood bank)
T1 sequence (P16109 42-830): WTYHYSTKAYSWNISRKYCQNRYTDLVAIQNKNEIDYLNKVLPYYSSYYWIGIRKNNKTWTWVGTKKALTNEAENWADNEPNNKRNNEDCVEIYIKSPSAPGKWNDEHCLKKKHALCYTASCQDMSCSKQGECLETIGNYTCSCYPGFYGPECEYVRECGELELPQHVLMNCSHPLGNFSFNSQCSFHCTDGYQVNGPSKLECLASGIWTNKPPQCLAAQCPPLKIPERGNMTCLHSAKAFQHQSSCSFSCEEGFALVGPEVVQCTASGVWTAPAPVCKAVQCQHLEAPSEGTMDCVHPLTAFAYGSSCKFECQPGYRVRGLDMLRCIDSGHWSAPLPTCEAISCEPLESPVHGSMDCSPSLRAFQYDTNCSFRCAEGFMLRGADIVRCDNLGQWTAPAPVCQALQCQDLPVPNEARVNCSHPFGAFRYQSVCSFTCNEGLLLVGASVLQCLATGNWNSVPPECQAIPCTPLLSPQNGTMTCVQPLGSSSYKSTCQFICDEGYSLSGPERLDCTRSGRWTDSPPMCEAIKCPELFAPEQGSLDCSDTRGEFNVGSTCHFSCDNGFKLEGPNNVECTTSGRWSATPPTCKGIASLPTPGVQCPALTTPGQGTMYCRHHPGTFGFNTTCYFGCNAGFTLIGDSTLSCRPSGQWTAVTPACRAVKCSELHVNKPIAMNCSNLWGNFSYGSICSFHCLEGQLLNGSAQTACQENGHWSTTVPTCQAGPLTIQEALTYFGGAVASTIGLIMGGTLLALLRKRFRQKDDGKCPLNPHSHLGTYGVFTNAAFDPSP
Outline: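 Isolated human neutrophils (2×10^5 per well) in HBSS with Ca2+/Mg2+ and HSA added to wells coated overnight at 4° C with platelet-derived P-selectin (5 micrograms/mL), HSA-blocked; 20 min at 22° C. Nonadherent cells removed by inverted centrifugation at 150 g; adherent cells quantified by myeloperoxidase activity.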

Structure (SMILES) | biological activity / inhibiting neutrophil adhesion to P-selectin (result in words)
CC[C@H](C)[C@H](NC(=O)[C@H](CCCCN)NC(=O)[C@@H](N)CCCNC(=N)N)C(=O)NCC(=O)NCC(=O)N[C@H]1CCC(=O)NCCCC[C@@H](C(N)=O)NC(=O)[C@H](Cc2c[nH]c3ccccc23)NC(=O)[C@H]([C@@H](C)O)NC(=O)[C@H](Cc2c[nH]c3ccccc23)NC1=O [SEQ ID NO:2, Arg-Lys-Ile-Gly-Gly-cyclo(Glu-Trp-Thr-Trp-Lys)-NH2] (H-RKIGGEWTWK-NH2; lactam 6-10) | inactive

same assay, conditions: inhibiting the binding of human neutrophils to P-selectin

Structure (SMILES) | IC50 [µM]
CC(C)[C@@H](NC(=O)[C@@H](Cc1c[nH]cn1)NC(=O)[C@H](NC(=O)[C@@H](Cc1c[nH]c2ccccc12)NC(=O)[C@H]1CSSC[C@@H](NC(=O)[C@@H](CCCCN)NC(=O)[C@H](N)CCCNC(=N)N)C(=O)NCC(=O)N[C@@H](Cc2ccccc2)C(=O)N1)[C@H](C)O)C(N)=O [(61)] (H-[dR][dK][dC]GF[dC][dW][dT][dH][dV]-NH2; disulfide 3-6) | 65.4
CC(C)[C@@H](NC(=O)[C@@H](Cc1c[nH]c2ccccc12)NC(=O)[C@H](NC(=O)[C@@H](Cc1c[nH]c2ccccc12)NC(=O)[C@@H]1CSSC[C@H](NC(=O)[C@@H](CCCCN)NC(=O)[C@H](N)CCCNC(=N)N)C(=O)NCC(=O)NCC(=O)N1)[C@H](C)O)C(N)=O [(113)] (H-[dR][dK]CGGC[dW][dT][dW][dV]-NH2; disulfide 3-6) | 0.7
CC(C)[C@@H](NC(=O)[C@@H](Cc1c[nH]c2ccccc12)NC(=O)[C@H](NC(=O)[C@@H](Cc1c[nH]c2ccccc12)NC(=O)[C@H]1CSSC[C@@H](NC(=O)[C@@H](CCCCN)NC(=O)[C@H](N)CCCNC(=N)N)C(=O)NCC(=O)N[C@@H](Cc2c[nH]c3ccccc23)C(=O)N1)[C@H](C)O)C(N)=O [(60)] (H-[dR][dK][dC]GW[dC][dW][dT][dW][dV]-NH2; disulfide 3-6) | 1.4
CC(C)[C@@H](NC(=O)[C@@H](Cc1c[nH]c2ccccc12)NC(=O)[C@H](NC(=O)[C@@H](Cc1ccccc1)NC(=O)[C@H]1CSSC[C@@H](NC(=O)[C@@H](CCCCN)NC(=O)[C@H](N)CCCNC(=N)N)C(=O)NCC(=O)NCC(=O)N1)[C@H](C)O)C(N)=O [(14)] (H-[dR][dK][dC]GG[dC][dF][dT][dW][dV]-NH2; disulfide 3-6) | 40
CC(C)[C@@H](NC(=O)[C@@H](Cc1c[nH]c2ccccc12)NC(=O)[C@H](NC(=O)[C@@H](Cc1c[nH]c2ccccc12)NC(=O)[C@H]1CSSC[C@@H](NC(=O)[C@@H](C)NC(=O)[C@H](N)CCCNC(=N)N)C(=O)NCC(=O)N[C@@H](Cc2ccccc2)C(=O)N1)[C@H](C)O)C(N)=O [(110)] (H-[dR][dA][dC]GF[dC][dW][dT][dW][dV]-NH2; disulfide 3-6) | 52.9
CC(C)[C@@H](NC(=O)[C@@H](Cc1c[nH]c2ccccc12)NC(=O)[C@H](NC(=O)[C@@H](Cc1c[nH]c2ccccc12)NC(=O)[C@H]1CSSC[C@@H](NC(=O)[C@H](CCCCN)NC(=O)[C@H](N)CCCNC(=N)N)C(=O)NCC(=O)N[C@@H](Cc2ccccc2)C(=O)N1)[C@H](C)O)C(N)=O [(34)] (H-[dR]K[dC]GF[dC][dW][dT][dW][dV]-NH2; disulfide 3-6) | 88.5
CC(C)[C@@H](NC(=O)[C@@H](Cc1c[nH]c2ccccc12)NC(=O)[C@@H](CCC(N)=O)NC(=O)[C@H](NC(=O)[C@@H](Cc1c[nH]c2ccccc12)NC(=O)[C@H]1CSSC[C@@H](NC(=O)[C@@H](CCCCN)NC(=O)[C@H](N)CCCNC(=N)N)C(=O)NCC(=O)NCC(=O)N1)[C@H](C)O)C(N)=O [(17)] (H-[dR][dK][dC]GG[dC][dW][dT][dQ][dW][dV]-NH2; disulfide 3-6) | 225

Other lines, results leading:

IC50 [µM] | Structure (SMILES)
533 | CC(C)[C@@H](NC(=O)[C@@H](CCCCN)NC(=O)[C@H](NC(=O)[C@@H](Cc1c[nH]c2ccccc12)NC(=O)[C@H]1CSSC[C@@H](NC(=O)[C@@H](CCCCN)NC(=O)[C@H](N)CCCNC(=N)N)C(=O)NCC(=O)N[C@@H](Cc2ccccc2)C(=O)N1)[C@H](C)O)C(N)=O [(62)] (H-[dR][dK][dC]GF[dC][dW][dT][dK][dV]-NH2; disulfide 3-6)
217 | CC(C)[C@@H](NC(=O)[C@@H](Cc1c[nH]c2ccccc12)NC(=O)[C@H](NC(=O)[C@@H](Cc1c[nH]c2ccccc12)NC(=O)[C@H]1CSSC[C@@H](NC(=O)[C@@H](CCCCN)NC(=O)[C@H](N)CCCNC(=N)N)C(=O)N[C@H](CCCCN)C(=O)N[C@@H](Cc2ccccc2)C(=O)N1)[C@H](C)O)C(N)=O [(54)] (H-[dR][dK][dC][dK]F[dC][dW][dT][dW][dV]-NH2; disulfide 3-6)
97 | C[C@H](O)[C@@H](NC(=O)[C@@H](Cc1c[nH]c2ccccc12)NC(=O)[C@H]1CSSC[C@@H](NC(=O)[C@@H](CCCCN)NC(=O)[C@H](N)CCCNC(=N)N)C(=O)NCC(=O)NCC(=O)N1)C(=O)N[C@H](Cc1c[nH]c2ccccc12)C(N)=O [(8)] (H-[dR][dK][dC]GG[dC][dW][dT][dW]-NH2; disulfide 3-6)
36 | CC(C)[C@H](NC(=O)[C@H](Cc1c[nH]c2ccccc12)NC(=O)[C@@H](NC(=O)[C@H](Cc1c[nH]c2ccccc12)NC(=O)[C@@H]1CSSC(C)(C)[C@@H](NC(=O)[C@H](CCCCN)NC(=O)[C@@H](N)CCCNC(=N)N)C(=O)NCC(=O)NCC(=O)N1)[C@@H](C)O)C(N)=O [(23)] (H-RK[dPen]GGCWTWV-NH2; disulfide 3-6)
26 | CC(C)[C@@H](NC(=O)[C@@H](Cc1c[nH]c2ccccc12)NC(=O)[C@H](NC(=O)[C@@H](Cc1c[nH]c2ccccc12)NC(=O)[C@H]1CSSC[C@@H](NC(=O)[C@H](N)CCCCN)C(=O)NCC(=O)NCC(=O)N1)[C@H](C)O)C(N)=O [(26)] (H-[dK][dC]GG[dC][dW][dT][dW][dV]-NH2; disulfide 2-5)
19.5 | CC(=O)NCCCC[C@@H](NC(=O)[C@H]1CSC[C@@H](NC(=O)[C@@H](CCCCN)NC(=O)[C@H](N)CCCNC(=N)N)C(=O)NCC(=O)N[C@@H](Cc2ccccc2)C(=O)N1)C(=O)N[C@@H](C(=O)N[C@H](Cc1c[nH]c2ccccc12)C(=O)N[C@@H](C(N)=O)C(C)C)[C@H](C)O [(50)]
18 | CC[C@H](C)[C@@H]1NC(=O)CNC(=O)[C@@H](NC(=O)[C@@H](NC(=O)[C@H](CCCCN)NC(=O)[C@@H](N)CCCNC(=N)N)[C@@H](C)CC)CCCCNC(=O)CC[C@@H](C(=O)N[C@@H](Cc2c[nH]c3ccccc23)C(=O)N[C@H](C(N)=O)C(C)C)NC(=O)[C@H](Cc2c[nH]c3ccccc23)NC1=O [(31)] (H-RKIKGIWEWV-NH2; lactam 4-8)
11.1 | CC[C@@H](C)[C@H]1NC(=O)[C@H]([C@@H](C)CC)NC(=O)[C@H](NC(=O)[C@@H](CCCCN)NC(=O)[C@H](N)CCCNC(=N)N)CSSC[C@H](C(=O)N[C@H](Cc2c[nH]c3ccccc23)C(=O)N[C@@H](C(=O)N[C@H](Cc2c[nH]c3ccccc23)C(=O)N[C@@H](C(N)=O)C(C)C)[C@H](C)O)NC1=O [(67)] (H-[dR][dK][dC]I[dI][dC][dW][dT][dW][dV]-NH2; disulfide 3-6)

same assay, conditions: stated in text as 'active at'

Structure (SMILES) | concentration at which active in inhibiting neutrophil adhesion to P-selectin [mM]
CC(C)[C@H](NC(=O)[C@H](Cc1c[nH]c2ccccc12)NC(=O)[C@@H](NC(=O)[C@H](Cc1c[nH]c2ccccc12)NC(=O)[C@@H]1CC(=O)NC[C@H](NC(=O)[C@H](CCCCN)NC(=O)[C@@H](N)CCCNC(=N)N)C(=O)NCC(=O)NCC(=O)N1)[C@@H](C)O)C(N)=O [Preferred peptide (22), Arginyl-lysyl-cyclo(diaminopropionyl-glycyl-glycyl-aspartyl)-tryptophyl-threonyl-tryptophyl-valine-amide] (H-RK[Dap]GGDWTWV-NH2; lactam 3-6) | 13
